Assay results: US5618830A (priority 1995, dated 1997)
pIC50: −log10 of the molar value. Where a name gives a salt, the structure may show the parent alone. Read-outs that look alike come from different tables or passages of the source.

Columns and labels:
Hela RNA Polymerase II = biological target: T1, Hela RNA Polymerase II (Homo sapiens, UniProt P24928); assay: Hela RNA polymerase II run-off transcription; assay type: biochemical
T1 construct: Hela RNA polymerase II in Hela extract; endogenous in cells; host or cells: HeLa extract
Procedure: d. Hela RNA polymerase II-Compounds or DMSO were incubated in a run-off transcription assay using Hela RNA polymerase II in Hela extract with 50 ng/μl of pD5 template (Adeno major late promoter) in a final reaction containing 500 μM A,C,GTP and 0.5 μM [32]P-UTP in 15 mM Tris-HCl, pH 7.9/7.0 mM MGCl2 /32 mM (NH4)2 SO4 /0.2 mM EDTA/1.3 mM DTT for 60 min at 30° C. Following ethanol precipitation, reaction products were electrophoresed on 8% polyacrylamide gels containing 7M urea.

[1] = biological target: influenza transcription (flu APR8 virus) (Influenza A virus, UniProt P03433); assay: biochemical; parameters: species or system influenza virus A/PR/8/34 (H1N1)
RNase T1 = RNase T1 (Aspergillus oryzae, UniProt P00651); assay: RNase T1 assay
[2] = biological target: influenza virus transcription (Influenza A virus (A/Japan/305-/1957(H2N2)), UniProt Q1K9Q4); assay type: biochemical, influenza virus A/Japan/305/57 (H2N2); conditions: read-out: IC50, inhibition of influenza virus transcription; virus strain A/Japan/305/57 (H2N2); primed with cap1 ALMV
[3] = tested on: influenza virus transcription; assay: in vitro transcription primed with cap1 ALMV, B/Hong Kong/5/72; assay type: biochemical, influenza virus B/Hong Kong/5/72; conditions: virus strain B/Hong Kong/5/72, read-out: IC50, inhibition of influenza virus transcription
HIV RNase H = HIV RNase H (Human immunodeficiency virus type 1 group M subtype B, UniProt P04585); assay: HIV RNase H assay; assay type: biochemical
RNase U2 = RNase U2 (Ustilago sphaerogena, UniProt P00654); assay: RNase U2 assay
[4] = biological target: EcoRI Restriction Endonuclease (Escherichia coli, UniProt P00642); assay: EcoRI Restriction Endonuclease assay; assay type: biochemical
T7 Phage RNA Polymerase = T7 Phage RNA Polymerase (Escherichia phage T7, UniProt P00573); assay: T7 Phage RNA Polymerase assay; assay type: biochemical
[5] = biological target: influenza virus transcription (Influenza A virus (A/Port Chalmers/1/1973(H3N2)), UniProt Q1PUD2); assay type: biochemical, influenza virus A/Port Chalmers/1/73 (H3N2); conditions: read-out: IC50, inhibition of influenza virus transcription
[6] = biological target: cap-independent influenza transcription primed with ApG (Influenza A virus, UniProt P03431); assay: biochemical
VSV transcription = VSV transcription (Vesicular stomatitis Indiana virus, UniProt P03523); assay: biochemical
Hela DNA Polymerase-a = biological target: T2, Hela DNA Polymerase-a (Homo sapiens, UniProt P09884); assay: Hela DNA Polymerase-a assay; assay type: biochemical
T2 construct: Hela cell DNA polymerase α; endogenous in cells; host or cells: HeLa cells
T2 sequence (P09884 1-1462): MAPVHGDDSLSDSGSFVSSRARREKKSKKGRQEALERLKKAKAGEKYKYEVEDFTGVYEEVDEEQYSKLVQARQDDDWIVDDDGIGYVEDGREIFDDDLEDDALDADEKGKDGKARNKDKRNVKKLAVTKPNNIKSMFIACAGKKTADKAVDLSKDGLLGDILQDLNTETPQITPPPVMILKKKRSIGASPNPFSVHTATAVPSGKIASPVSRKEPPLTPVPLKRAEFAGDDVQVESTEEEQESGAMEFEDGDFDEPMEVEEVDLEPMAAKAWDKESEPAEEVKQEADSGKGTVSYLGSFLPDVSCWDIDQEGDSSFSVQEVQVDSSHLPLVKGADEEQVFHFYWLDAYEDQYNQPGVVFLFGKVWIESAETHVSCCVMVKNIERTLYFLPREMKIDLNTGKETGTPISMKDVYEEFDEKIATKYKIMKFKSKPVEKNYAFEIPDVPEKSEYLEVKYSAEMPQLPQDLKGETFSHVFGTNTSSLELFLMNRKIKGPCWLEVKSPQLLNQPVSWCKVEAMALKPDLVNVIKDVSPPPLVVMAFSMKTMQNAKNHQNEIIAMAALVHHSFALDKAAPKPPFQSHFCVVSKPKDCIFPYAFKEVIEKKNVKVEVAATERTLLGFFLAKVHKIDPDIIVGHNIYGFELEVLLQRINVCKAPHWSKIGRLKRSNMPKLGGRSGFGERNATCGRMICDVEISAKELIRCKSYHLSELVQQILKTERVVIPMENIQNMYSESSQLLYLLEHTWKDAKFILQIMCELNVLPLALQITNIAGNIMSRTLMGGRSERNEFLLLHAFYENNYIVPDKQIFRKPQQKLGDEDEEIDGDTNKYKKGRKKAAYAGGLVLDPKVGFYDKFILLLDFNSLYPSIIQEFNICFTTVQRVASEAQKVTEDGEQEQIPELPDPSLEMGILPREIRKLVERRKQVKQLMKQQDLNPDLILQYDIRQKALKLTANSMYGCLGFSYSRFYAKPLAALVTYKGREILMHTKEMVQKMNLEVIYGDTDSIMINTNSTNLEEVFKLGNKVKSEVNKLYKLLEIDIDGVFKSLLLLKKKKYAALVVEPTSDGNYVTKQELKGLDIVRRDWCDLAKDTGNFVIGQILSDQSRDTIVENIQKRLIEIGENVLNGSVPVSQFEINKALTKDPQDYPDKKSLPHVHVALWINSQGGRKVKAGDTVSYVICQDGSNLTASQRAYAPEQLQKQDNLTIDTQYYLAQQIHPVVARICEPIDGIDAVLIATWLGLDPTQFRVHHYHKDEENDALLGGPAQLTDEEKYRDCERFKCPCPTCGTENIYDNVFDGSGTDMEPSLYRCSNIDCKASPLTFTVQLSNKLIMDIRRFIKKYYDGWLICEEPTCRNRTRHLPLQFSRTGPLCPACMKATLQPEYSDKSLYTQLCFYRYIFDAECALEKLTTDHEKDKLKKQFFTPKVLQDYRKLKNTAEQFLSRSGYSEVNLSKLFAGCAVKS

RNase A = RNase A (Bos taurus, UniProt P61823); assay: RNase A assay
[7] = biological target: influenza virus transcription (Influenza A virus (A/nt/60/1968(H3N2)), UniProt P03434); assay type: biochemical, influenza virus A/Hong Kong/8/68 (H3N2); conditions: read-out: IC50, inhibition of influenza virus transcription; virus strain A/Hong Kong/8/68 (H3N2); primed with cap1 ALMV
Influenza Endonuclease = Influenza Endonuclease (Influenza A virus, UniProt P03433); assay: biochemical

Chain of EcoRI Restriction Endonuclease (P00642 2-277): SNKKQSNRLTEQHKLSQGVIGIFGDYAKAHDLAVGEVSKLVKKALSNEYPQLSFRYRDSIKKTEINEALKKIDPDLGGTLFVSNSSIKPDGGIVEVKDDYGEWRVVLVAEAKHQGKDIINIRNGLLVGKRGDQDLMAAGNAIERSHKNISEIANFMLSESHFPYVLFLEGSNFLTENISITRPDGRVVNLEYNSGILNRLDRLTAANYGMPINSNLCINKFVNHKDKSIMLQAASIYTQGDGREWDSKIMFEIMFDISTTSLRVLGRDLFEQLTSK
Chain of RNase U2 (P00654 whole entry): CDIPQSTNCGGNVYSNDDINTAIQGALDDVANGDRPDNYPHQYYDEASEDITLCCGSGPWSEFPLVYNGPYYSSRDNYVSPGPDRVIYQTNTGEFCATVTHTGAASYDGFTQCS
Chain of RNase T1 (P00651 27-130): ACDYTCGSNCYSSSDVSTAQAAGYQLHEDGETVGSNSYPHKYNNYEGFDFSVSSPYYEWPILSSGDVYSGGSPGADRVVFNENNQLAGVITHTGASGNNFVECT
Chain of RNase A (P61823 27-150): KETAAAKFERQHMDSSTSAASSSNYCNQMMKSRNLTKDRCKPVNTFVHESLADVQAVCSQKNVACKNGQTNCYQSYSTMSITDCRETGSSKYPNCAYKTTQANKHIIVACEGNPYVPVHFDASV
Chain of T7 Phage RNA Polymerase (P00573 whole entry): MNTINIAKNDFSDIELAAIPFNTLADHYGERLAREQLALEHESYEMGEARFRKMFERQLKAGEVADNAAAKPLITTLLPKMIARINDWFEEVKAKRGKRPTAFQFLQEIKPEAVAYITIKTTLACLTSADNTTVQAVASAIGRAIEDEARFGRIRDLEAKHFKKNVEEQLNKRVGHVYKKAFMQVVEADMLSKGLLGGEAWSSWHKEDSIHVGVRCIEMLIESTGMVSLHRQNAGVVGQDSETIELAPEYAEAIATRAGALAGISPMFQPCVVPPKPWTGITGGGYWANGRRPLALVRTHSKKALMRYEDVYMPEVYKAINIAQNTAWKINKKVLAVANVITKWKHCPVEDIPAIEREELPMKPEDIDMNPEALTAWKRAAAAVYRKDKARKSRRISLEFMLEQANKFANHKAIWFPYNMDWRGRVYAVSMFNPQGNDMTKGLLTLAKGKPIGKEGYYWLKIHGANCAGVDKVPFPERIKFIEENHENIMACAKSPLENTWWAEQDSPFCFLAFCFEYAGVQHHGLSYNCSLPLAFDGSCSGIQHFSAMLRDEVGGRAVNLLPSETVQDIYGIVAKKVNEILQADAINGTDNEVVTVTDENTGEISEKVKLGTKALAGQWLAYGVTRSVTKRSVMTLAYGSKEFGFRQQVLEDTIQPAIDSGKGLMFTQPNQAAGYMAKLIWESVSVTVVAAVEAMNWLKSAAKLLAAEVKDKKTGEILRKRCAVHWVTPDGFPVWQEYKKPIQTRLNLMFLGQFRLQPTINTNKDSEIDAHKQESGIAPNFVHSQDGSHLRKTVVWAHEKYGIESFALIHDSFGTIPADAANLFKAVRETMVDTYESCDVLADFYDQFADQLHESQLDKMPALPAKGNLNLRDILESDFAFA
Chain of VSV transcription (P03523 whole entry, looked up): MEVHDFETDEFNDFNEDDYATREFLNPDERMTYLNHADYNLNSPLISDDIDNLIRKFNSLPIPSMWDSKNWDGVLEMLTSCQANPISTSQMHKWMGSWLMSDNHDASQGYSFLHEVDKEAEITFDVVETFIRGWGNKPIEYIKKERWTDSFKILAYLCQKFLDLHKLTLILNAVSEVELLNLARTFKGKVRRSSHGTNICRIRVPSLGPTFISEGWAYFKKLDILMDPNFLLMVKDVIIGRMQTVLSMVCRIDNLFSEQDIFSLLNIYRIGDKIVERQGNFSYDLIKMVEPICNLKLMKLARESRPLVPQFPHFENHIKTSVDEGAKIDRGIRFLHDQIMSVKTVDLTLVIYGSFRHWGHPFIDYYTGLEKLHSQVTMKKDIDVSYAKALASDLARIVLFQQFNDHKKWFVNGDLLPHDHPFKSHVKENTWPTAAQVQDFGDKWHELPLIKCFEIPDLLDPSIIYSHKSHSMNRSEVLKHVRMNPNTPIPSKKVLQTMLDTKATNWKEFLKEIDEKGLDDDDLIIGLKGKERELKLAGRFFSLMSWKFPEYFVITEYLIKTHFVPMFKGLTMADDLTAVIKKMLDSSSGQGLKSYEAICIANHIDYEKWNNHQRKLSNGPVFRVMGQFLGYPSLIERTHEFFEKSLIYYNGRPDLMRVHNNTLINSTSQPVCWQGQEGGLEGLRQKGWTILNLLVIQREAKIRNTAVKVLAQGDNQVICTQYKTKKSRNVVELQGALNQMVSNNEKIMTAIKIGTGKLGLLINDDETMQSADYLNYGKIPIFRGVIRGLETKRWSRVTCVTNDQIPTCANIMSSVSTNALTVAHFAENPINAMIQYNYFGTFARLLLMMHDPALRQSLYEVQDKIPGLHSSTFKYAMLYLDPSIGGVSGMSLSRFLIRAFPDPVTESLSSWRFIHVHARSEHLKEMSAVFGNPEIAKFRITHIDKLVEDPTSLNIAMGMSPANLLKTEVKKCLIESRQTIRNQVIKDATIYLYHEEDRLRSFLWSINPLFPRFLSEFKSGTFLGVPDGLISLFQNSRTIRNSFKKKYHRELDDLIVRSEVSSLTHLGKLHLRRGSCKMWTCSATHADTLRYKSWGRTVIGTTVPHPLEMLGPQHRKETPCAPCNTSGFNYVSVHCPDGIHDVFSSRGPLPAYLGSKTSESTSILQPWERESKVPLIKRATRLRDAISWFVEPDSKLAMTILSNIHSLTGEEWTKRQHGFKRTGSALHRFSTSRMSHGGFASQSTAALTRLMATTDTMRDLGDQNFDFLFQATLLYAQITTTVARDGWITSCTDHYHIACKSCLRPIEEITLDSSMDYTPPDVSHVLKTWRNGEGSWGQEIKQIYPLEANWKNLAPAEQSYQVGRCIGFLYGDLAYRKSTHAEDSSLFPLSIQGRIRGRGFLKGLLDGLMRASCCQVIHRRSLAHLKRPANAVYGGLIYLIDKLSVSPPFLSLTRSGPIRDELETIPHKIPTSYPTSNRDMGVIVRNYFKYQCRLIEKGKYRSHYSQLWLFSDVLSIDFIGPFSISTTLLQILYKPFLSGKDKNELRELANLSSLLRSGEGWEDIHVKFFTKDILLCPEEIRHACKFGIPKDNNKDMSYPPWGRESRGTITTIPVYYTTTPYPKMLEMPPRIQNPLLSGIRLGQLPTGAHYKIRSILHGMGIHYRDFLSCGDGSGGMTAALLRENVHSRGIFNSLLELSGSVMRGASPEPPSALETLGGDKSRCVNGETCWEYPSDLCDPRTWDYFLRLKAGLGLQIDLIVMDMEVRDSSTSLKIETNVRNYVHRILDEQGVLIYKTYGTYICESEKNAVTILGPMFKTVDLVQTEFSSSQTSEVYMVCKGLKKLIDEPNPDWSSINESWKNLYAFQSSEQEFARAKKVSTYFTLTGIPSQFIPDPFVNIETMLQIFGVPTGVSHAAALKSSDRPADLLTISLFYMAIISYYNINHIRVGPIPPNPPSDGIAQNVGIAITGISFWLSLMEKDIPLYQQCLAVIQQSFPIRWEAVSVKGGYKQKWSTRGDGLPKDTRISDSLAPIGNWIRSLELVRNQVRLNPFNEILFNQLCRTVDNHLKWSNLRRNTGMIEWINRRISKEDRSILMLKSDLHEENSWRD
Chain of cap-independent influenza transcription primed with ApG (P03431 whole entry, looked up): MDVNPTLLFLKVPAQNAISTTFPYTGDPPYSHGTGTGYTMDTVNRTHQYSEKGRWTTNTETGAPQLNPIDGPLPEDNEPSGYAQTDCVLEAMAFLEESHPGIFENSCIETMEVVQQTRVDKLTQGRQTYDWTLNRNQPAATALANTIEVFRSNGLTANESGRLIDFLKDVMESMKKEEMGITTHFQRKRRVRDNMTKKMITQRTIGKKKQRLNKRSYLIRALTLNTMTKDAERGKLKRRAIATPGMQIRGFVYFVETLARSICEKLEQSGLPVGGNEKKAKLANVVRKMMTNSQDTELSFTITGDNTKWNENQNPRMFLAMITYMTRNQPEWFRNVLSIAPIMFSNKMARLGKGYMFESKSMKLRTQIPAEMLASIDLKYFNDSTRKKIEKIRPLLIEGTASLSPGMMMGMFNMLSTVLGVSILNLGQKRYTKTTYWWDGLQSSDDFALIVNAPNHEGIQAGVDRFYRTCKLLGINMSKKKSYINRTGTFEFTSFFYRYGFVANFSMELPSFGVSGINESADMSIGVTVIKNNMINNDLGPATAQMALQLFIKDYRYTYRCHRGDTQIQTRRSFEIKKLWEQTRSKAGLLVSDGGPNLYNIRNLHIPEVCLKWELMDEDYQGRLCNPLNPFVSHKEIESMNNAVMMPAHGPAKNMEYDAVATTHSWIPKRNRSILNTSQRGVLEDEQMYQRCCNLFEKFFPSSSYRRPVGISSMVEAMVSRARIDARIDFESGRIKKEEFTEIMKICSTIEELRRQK

In the case of `O=C(O)C(=O)CC(=O)C1(Cc2ccc(Cl)cc2)CCCN(Cc2ccccc2)C1` (centres unmarked) [Compound A, 4-[N-benzyl-3-(4-chlorobenzyl)piperidin-3-yl]2,4-dioxobutanoic acid hydrochloride], the pIC50 (Hela RNA Polymerase II) was less than 3.30, the pIC50 [1] was 5.96 and the pIC50 ([1]; read-out: IC50, inhibition of influenza virus transcription) was 5.96. For the same molecule, the pIC50 (RNase T1) was less than 3.70, the pIC50 [2] was 6.60 and the pIC50 [3] was 6.07. The pIC50 (HIV RNase H) was 4.00, the pIC50 (RNase U2) was less than 3.70 and the pIC50 [4] was less than 3.30. For the same molecule, the pIC50 (T7 Phage RNA Polymerase) was less than 4.00, the pIC50 [5] was 6.30 and the pIC50 [6] was less than 3.00. It also gave a pIC50 (VSV transcription) of less than 3.30, a pIC50 (Hela DNA Polymerase-a) of less than 4.00 and a pIC50 (RNase A) of less than 3.70. The pIC50 [7] was 6.21 and the pIC50 (Influenza Endonuclease) was 5.74.
